According to patent publication US20160130226A1, “SPIRO-SUBSTITUTED OXINDOLE DERIVATIVES HAVING AMPK ACTIVITY” (BOEHRINGER INGELHEIM INTERNATIONAL GMBH, priority 2013, published 2016):

target: T1, AMPK beta 1 (Homo sapiens, UniProt Q13131+Q9Y478); test: in-cell-ELISA for phospho-ACC: activation of AMPK, beta 1 (HepG2 cells / C2C12 myotubes); format: cell-based; settings: 1 μM, 2 h, percentage activation over vehicle control
T1 construct: in-cell-ELISA for phospho-ACC (Acetyl-CoA carboxylase 1) in HepG2 cells (liver); endogenous in cells; host or cells: HepG2 (assignment to the beta 1 column inferred)
T1 sequence (Q9Y478 2-270 limits assumed): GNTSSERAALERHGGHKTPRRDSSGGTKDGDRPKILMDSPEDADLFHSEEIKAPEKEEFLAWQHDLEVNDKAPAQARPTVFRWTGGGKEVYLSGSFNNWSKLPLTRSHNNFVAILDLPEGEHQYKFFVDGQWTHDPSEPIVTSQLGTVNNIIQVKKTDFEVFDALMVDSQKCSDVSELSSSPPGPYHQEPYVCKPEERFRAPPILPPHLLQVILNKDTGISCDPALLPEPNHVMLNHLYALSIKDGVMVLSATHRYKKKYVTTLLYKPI
T1 sequence (Q13131 whole entry): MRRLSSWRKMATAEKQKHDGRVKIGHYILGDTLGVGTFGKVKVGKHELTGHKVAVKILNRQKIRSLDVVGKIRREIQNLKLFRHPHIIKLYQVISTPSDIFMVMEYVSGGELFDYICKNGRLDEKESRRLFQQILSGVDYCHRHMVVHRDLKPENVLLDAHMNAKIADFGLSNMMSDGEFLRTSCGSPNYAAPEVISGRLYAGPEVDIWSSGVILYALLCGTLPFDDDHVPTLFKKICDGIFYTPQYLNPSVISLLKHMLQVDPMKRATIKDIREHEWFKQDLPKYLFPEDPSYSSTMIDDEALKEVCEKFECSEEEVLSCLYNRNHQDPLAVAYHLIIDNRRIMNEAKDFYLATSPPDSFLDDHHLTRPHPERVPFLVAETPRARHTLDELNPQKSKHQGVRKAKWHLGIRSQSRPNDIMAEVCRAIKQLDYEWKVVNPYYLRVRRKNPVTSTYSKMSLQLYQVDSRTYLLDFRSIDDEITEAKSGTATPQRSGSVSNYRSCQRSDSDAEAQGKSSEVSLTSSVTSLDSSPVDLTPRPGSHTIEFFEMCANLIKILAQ
T1 sequence (P54619 whole entry partner): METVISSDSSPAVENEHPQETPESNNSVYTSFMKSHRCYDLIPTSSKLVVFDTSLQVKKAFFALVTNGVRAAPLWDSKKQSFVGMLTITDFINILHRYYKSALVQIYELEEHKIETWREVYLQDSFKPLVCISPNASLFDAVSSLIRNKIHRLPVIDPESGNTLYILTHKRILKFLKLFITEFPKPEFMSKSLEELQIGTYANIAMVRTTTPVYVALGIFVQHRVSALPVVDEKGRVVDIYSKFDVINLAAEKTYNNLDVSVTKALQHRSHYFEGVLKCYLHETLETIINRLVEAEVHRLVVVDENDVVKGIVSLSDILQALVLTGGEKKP
Description: (§1) Activation of AMPK by various compounds were measured using in-cell-ELISA for phospho-ACC (Acetyl-CoA carboxylase 1) in HepG2 cells (liver) and fully differentiated myotubes (C2C12 cells) grown in 96 well plate. Cells were treated with 1 μM, 3 μM or 10 μM of the molecule (Example) for 2 h in serum free DMEM media. After methanol fixation, cells were blocked with BSA followed by addition of anti-phospho ACC antibody (Cell Signaling) and HRP conjugated secondary antibody. Absorbance values taken at 450 nm were normalized with total DNA (Hoechest stain). Results were expressed as percentage activation over vehicle control.
(§2) Percentage activation at compound (Example) concentration of 1, 3 or 10 μM for compounds according to the invention are shown in the following table. The number of the compound corresponds to the number of the Example (Ex) in the experimental section.

In order of rising “Percentage activation of beta 1 at given concentration” value:
1. Cc1ccc(C2CC23C(=O)Nc2cc(Cl)c(-c4ccc(-c5ccc(-n6cncn6)cc5)c(F)c4)cc23)cc1C(=O)O (centres unmarked) [Example 151]  25% at 1 μM
2. Cc1ccc(C2CC23C(=O)Nc2cc(F)c(-c4ccc(-c5ccc(-n6cncn6)cc5)cc4)cc23)cc1C(=O)O (centres unmarked) [Example 147]  32% at 1 μM
3. Cc1ccc(C2CC23C(=O)Nc2cc(Cl)c(-c4ccc(-c5ccc(-n6cncn6)cc5)c(F)c4)cc23)cc1C(=O)O (centres unmarked) [Example 152]  95% at 1 μM
4. Cc1ccc(C2CC23C(=O)Nc2cc(Cl)c(-c4ccc(-c5ccc(-n6cncn6)cc5)cc4)cc23)cc1C(=O)O (centres unmarked) [Example 119]  99% at 1 μM
5. CC(C)(C(=O)O)c1ccc(C2CC23C(=O)Nc2cc(F)c(-c4ccc(-c5ccc(-n6cncn6)cc5)cc4)cc23)cc1 (centres unmarked) [Example 161]  115% at 1 μM
6. Cc1ccc(C2CC23C(=O)Nc2cc(F)c(-c4ccc(-c5ccc(-n6cccn6)cc5)cc4)cc23)cc1C(=O)O (centres unmarked) [Example 144]  118% at 1 μM
7. Cc1ccc(C2CC23C(=O)Nc2cc(F)c(-c4ccc(-c5ccc(-n6cncn6)cc5)cc4)cc23)cc1C(=O)O (centres unmarked) [Example 148]  127% at 1 μM
8. CC(C)(C(=O)O)c1ccc(C2CC23C(=O)Nc2cc(F)c(-c4ccc(-c5ccc(-n6cncn6)cc5)cc4)cc23)cc1 (centres unmarked) [Example 163]  131% at 1 μM
9. Cc1ccc(C2CC23C(=O)Nc2cc(Cl)c(-c4ccc(-c5ccc(-n6cncn6)cc5)cc4)cc23)cc1C(=O)O (centres unmarked) [Example 117]  165% at 1 μM

same assay, conditions: 3 μM, 2 h, percentage activation over vehicle control

`Cc1ccc(C2CC23C(=O)Nc2cc(Cl)c(-c4ccc(-c5ccc(-n6cncn6)cc5)cc4)cc23)cc1CO` (centres unmarked) [Example 185] was tested, and the “Percentage activation of beta 1 at given concentration” value was 34% at 3 μM.

same assay, conditions: 2 h, 1 μM, percentage activation over vehicle control, read-out: Percentage activation of beta 1 at given concentration

In order of falling activation at 1 µM:
1. O=C(O)Cc1cccc(C2CC23C(=O)Nc2cc(F)c(-c4ccc(-c5ccc(-n6ccnn6)cc5)cc4)cc23)c1 (centres unmarked) [Example 174]  87%
2. COc1ccc(C2CC23C(=O)Nc2cc(F)c(-c4ccc(-c5ccc(-n6ccnn6)cc5)cc4)cc23)cc1CC(=O)O (centres unmarked) [Example 177]  51%
3. O=C(O)Cc1cccc(C2CC23C(=O)Nc2cc(F)c(-c4ccc(-c5ccc(-n6cccn6)cc5)cc4)cc23)c1 (centres unmarked) [Example 171]  44%
4. Cn1cc(C2CC23C(=O)Nc2cc(Cl)c(-c4ccc(-c5ccc(-n6cncn6)cc5)cc4)cc23)cc1C(=O)O (centres unmarked) [Example 126]  38%
5. Cc1ccc(C2CC23C(=O)Nc2c(F)cc(-c4ccc(-c5ccc(-n6cncn6)cc5)cc4)cc23)cc1C(=O)O (centres unmarked) [Example 155]  28%
6. COc1ccc(C2CC23C(=O)Nc2cc(F)c(-c4ccc(-c5ccc(-n6cccn6)cc5)cc4)cc23)cc1C(=O)O (centres unmarked) [Example 164]  19%
7. Cc1ccc(C2CC23C(=O)Nc2cc(F)c(-c4ccc(-c5ccc6c(cnn6C)c5)cc4)cc23)cc1C(=O)O (centres unmarked) [Example 160]  11%
8. Cc1ccc(C2CC23C(=O)Nc2c3cc(-c3ccc(-c4ccc(-n5cccn5)cc4)cc3)c(Cl)c2Cl)cc1C(=O)O (centres unmarked) [Example 153]  10%

same assay, conditions: 2 h, 3 μM, percentage activation over vehicle control, read-out: Percentage activation of beta 1 at given concentration

In order of falling activation at 3 µM:
1. Cc1ccc(C2CC23C(=O)N(C)c2cc(Cl)c(-c4ccc(-c5ccncc5)cc4)cc23)cc1C(=O)O (centres unmarked) [Example 100]  134%
2. Cc1ccc(C2CC23C(=O)Nc2cc(F)c(-c4ccc(-c5ccccc5O)cc4)cc23)cc1C(=O)O (centres unmarked) [Example 5]  133%
3. Cc1ccc(C2CC23C(=O)Nc2cc(F)c(-c4ccc(-c5ccc(-n6cccn6)cc5)cc4)cc23)cc1C(=O)O (centres unmarked) [Example 141]  104%
4. Cc1ccc(C2CC23C(=O)Nc2cc(Cl)c(-c4ccc(-c5ccc(-n6cncn6)cc5)cc4)cc23)cc1C(=O)O (centres unmarked) [Example 116]  100%
5. CCN1C(=O)C2(CC2c2ccc(OC)c(C(=O)O)c2)c2cc(-c3ccc(-c4ccncc4)cc3)c(Cl)cc21 (centres unmarked) [Example 106]  99%
6. COc1ccc(C2CC23C(=O)Nc2cc(Cl)c(-c4ccc(-c5ccc(-n6cccn6)cc5)cc4)cc23)cc1C(=O)O (centres unmarked) [Example 121]  91%
7. Cc1ccc(C2CC23C(=O)N(CC2CC2)c2cc(Cl)c(-c4ccc(-c5ccncc5)cc4)cc23)cc1C(=O)O (centres unmarked) [Example 109]  83%
8. Cc1ccc(C2CC23C(=O)N(CCO)c2cc(Cl)c(-c4ccc(-c5ccncc5)cc4)cc23)cc1C(=O)O (centres unmarked) [Example 105]  81%
9. O=C(O)Cc1ccc(C2CC23C(=O)Nc2cc(Cl)c(-c4ccc(-c5ccc(-n6cncn6)cc5)cc4)cc23)cc1 (centres unmarked) [Example 127]  71%
10. COCN1C(=O)C2(CC2c2ccc(C)c(C(=O)O)c2)c2cc(-c3ccc(-c4ccncc4)cc3)c(Cl)cc21 (centres unmarked) [Example 99]  66%
11. Cc1ccc(C2CC23C(=O)Nc2cc(Cl)c(-c4ccc(-n5cccn5)cc4)cc23)cc1C(=O)O (centres unmarked) [Example 166]  62%
12. CCN1C(=O)C2(CC2c2ccc(OC)c(CC(=O)O)c2)c2cc(-c3ccc(-c4ccncc4)cc3)c(Cl)cc21 (centres unmarked) [Example 110]  58%
13. Cc1ccc(C2CC23C(=O)N(C(C)C)c2cc(Cl)c(-c4ccc(-c5ccncc5)cc4)cc23)cc1C(=O)O (centres unmarked) [Example 104]  56%
14. Cc1ccc(C2CC23C(=O)Nc2cc(F)c(-c4ccc(-c5ccncc5)cc4)cc23)cc1C(=O)O (centres unmarked) [Example 81]  55%
15. CC(C)(C(=O)O)c1ccc(C2CC23C(=O)Nc2cc(Cl)c(-c4ccc(-c5ccc(-n6cncn6)cc5)cc4)cc23)cc1 (centres unmarked) [Example 137]  48%
16. CC(C)c1ccc(C2CC23C(=O)Nc2cc(Cl)c(-c4ccc(-c5ccc(-n6cncn6)cc5)cc4)cc23)cc1C(=O)O (centres unmarked) [Example 131]  47%
17. Cc1ccc(C2CC23C(=O)Nc2cc(Cl)c(-c4ccc(-c5ccc(-n6cncn6)cc5)cc4)cc23)cc1CO (centres unmarked) [Example 184]  36%
18. Cc1ccc(C2CC23C(=O)Nc2cc(Cl)c(-c4ccc(-c5ccc(-n6cncn6)cc5)cc4)cc23)cc1C(C)(C)O (centres unmarked) [Example 186]  32%
19. CN1C(=O)C2(CC2c2ccc(C(C)(C)C(=O)O)cc2)c2cc(-c3ccc(-c4ccncc4)cc3)c(Cl)cc21 (centres unmarked) [Example 112]  30%
20. O=C1Nc2cc(F)c(-c3ccc(-c4ccccc4O)cc3)cc2C12CC2c1cccc(-c2nnn[nH]2)c1 (centres unmarked) [Example 179]  23%
21. Cc1ccc(C2CC23C(=O)Nc2cc(Cl)c(-c4ccc(-c5ccc(-n6cnnn6)cc5)cc4)cc23)cc1C(=O)O (centres unmarked) [Example 140]  21%
22. O=C1Nc2cc(Cl)c(-c3ccc(-c4ccc(-n5cncn5)cc4)cc3)cc2C12CC2c1ccc(-c2nnn[nH]2)cc1 (centres unmarked) [Example 191]  21%
23. Cc1ccc(C2CC23C(=O)Nc2cc(Cl)c(-c4ccc(-c5ccc(-c6nnn[nH]6)cc5)cc4)cc23)cc1C(=O)O (centres unmarked) [Example 136]  19%
24. Cc1ccc(C2CC23C(=O)Nc2cc(Cl)c(-c4ccc(-c5ccccc5O)cc4)cc23)cc1C(=O)Nc1nnn[nH]1 (centres unmarked) [Example 183]  19%
25. O=C(O)Cc1cccc(C2CC23C(=O)Nc2cc(Cl)c(-c4ccc(-c5ccc(-n6cncn6)cc5)cc4)cc23)c1 (centres unmarked) [Example 129]  15%

same assay, conditions: 2 h, 10 μM, percentage activation over vehicle control, read-out: Percentage activation of beta 1 at given concentration

In order of falling activation at 10 µM:
1. Cc1ccc(C2CC23C(=O)Nc2cc(Cl)c(-c4ccc5[nH]ccc5c4)cc23)cc1C(=O)O (centres unmarked) [Example 94]  137%
2. CN(C)c1cc(-c2ccc(-c3cc4c(cc3Cl)NC(=O)C43CC3c3cccc(CC(=O)O)c3)cc2)ccn1 (centres unmarked) [Example 88]  132%
3. Cc1ccc(C2CC23C(=O)Nc2cc(Cl)c(-c4ccc(-c5cnn(C)c5)cc4)cc23)cc1C(=O)O (centres unmarked) [Example 85]  127%
4. Cc1ccc(C2CC23C(=O)Nc2cc(Cl)c(-c4ccc(-c5ccncc5)cc4)nc23)cc1C(=O)O (centres unmarked) [Example 83]  92%
5. COc1ccc(C2CC23C(=O)Nc2cc(F)c(-c4ccc(-c5ccncc5)cc4)cc23)cc1C(=O)O (centres unmarked) [Example 84]  75%
6. Cc1ccc(C2CC23C(=O)Nc2cc(Cl)c(-c4ccc5cc[nH]c5c4)cc23)cc1C(=O)O (centres unmarked) [Example 93]  51%
7. CCN1C(=O)C2(CC2c2ccc(C)c(CC(=O)O)c2)c2cc(-c3ccc(-c4ccncc4)cc3)c(Cl)cc21 (centres unmarked) [Example 113]  51%
8. Cn1cc(C2CC23C(=O)Nc2cc(Cl)c(-c4ccc(-c5ccc(-n6cccn6)cc5)cc4)cc23)cc1C(=O)O (centres unmarked) [Example 120]  48%
9. Cc1ccc(C2CC23C(=O)Nc2cc(Cl)c(-c4ccc(-c5ccccc5S(C)(=O)=O)cc4)cc23)cc1C(=O)O (centres unmarked) [Example 87]  47%
10. Cc1ccc(C2CC23C(=O)Nc2cc(Cl)c(S(=O)(=O)NC4CC4)cc23)cc1C(=O)O (centres unmarked) [Example 90]  25%
11. Cc1ccc(C2CC23C(=O)Nc2cc(Cl)c(S(=O)(=O)Nc4ccccc4O)cc23)cc1C(=O)O (centres unmarked) [Example 92]  16%
12. Cc1ccc(C2CC23C(=O)Nc2cc(Cl)c(S(=O)(=O)NC4CCC4)cc23)cc1C(=O)O (centres unmarked) [Example 91]  10%

target: T2, AMPK beta 2 (Mus musculus, UniProt Q6PAM0+Q8BRK8); test: in-cell-ELISA for phospho-ACC: activation of AMPK, beta 2 (HepG2 cells / C2C12 myotubes); format: cell-based; settings: 2 h, 1 μM, percentage activation over vehicle control, read-out: Percentage activation of beta 2 at given concentration
T2 construct: fully differentiated myotubes (C2C12 cells) grown in 96 well plate; endogenous in cells; host or cells: C2C12 myotubes (assignment to the beta 2 column inferred)
T2 sequence (Q6PAM0 whole entry): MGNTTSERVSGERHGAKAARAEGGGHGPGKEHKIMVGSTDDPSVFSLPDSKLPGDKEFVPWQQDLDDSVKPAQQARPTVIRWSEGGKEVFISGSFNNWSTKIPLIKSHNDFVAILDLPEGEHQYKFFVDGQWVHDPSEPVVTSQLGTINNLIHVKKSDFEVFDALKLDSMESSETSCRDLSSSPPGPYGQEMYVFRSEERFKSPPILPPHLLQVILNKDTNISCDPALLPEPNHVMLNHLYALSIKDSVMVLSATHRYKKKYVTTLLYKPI
T2 sequence (Q8BRK8 whole entry): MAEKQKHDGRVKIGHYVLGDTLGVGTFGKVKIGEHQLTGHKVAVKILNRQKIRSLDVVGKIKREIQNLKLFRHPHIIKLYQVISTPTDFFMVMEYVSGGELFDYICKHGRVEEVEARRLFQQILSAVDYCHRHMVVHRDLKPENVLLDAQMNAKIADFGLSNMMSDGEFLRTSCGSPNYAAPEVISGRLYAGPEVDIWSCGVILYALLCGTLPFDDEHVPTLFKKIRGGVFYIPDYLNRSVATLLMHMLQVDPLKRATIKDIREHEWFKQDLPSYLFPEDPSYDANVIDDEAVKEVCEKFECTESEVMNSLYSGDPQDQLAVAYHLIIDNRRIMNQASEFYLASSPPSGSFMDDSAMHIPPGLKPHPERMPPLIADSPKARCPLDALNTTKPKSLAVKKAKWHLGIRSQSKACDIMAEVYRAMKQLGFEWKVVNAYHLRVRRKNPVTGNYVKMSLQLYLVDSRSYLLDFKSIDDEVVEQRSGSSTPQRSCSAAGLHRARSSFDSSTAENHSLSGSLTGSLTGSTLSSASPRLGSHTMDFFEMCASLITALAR
T2 sequence (O54950 whole entry partner): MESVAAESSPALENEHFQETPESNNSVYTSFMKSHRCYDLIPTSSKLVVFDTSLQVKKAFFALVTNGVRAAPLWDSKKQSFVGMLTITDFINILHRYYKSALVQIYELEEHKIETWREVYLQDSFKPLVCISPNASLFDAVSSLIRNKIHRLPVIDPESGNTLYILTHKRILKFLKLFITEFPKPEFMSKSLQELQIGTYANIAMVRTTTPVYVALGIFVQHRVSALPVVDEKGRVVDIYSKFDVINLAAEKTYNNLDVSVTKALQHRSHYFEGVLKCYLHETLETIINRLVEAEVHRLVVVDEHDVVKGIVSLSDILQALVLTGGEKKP
Description: as §1, §2

For `Cc1ccc(C2CC23C(=O)Nc2cc(F)c(-c4ccc(-c5ccccc5O)cc4)cc23)cc1C(=O)O` (centres unmarked) [Example 5], the activation at 1 µM was 50%.
